Measured values reported in the supplement of paper PMC11061612.

Key:
[1] = test system: BICR78 (Oral Cavity Carcinoma); assay: Bliss excess, mean over the matrix (fraction); higher = more synergy
How it was run: (§1)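 Cell lines in DMEM/F12 or RPMI with 10% FBS were plated in 1536-well plates, held 24 hours at 37°C, 5% CO2, then given two-drug dose matrices for 72 hours (DMSO typically 0.2%). Viability was read by CellTiter-Glo 2.0 luminescence and scaled as inhibition from 0 (vehicle wells) to 1 (blank wells). Combination Emax is the second-highest inhibition in the matrix; Bliss excess is observed combination effect minus expected EA + EB − EA·EB, EA and EB being single-agent effects.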

[2] = test system: CAL-39 (Other Solid Carcinomas); assay: as above
How it was run: as §1

CS1 (Chondrosarcoma) [3] = assay: as above
How it was run: as §1

[4] = test system: DOK (Oral Cavity Carcinoma); assay: as above
How it was run: as §1

EW-22 (Ewing's Sarcoma) [5] = assay: as above
How it was run: as §1

[6] = test system: FU-OV-1 (Ovarian Carcinoma); assay: as above
How it was run: as §1

H4 (Low Grade Glioma) = assay: as above
How it was run: as §1

[7] = test system: HCT-116 (Colorectal Carcinoma); assay: as above
How it was run: as §1

[8] = test system: HLE (Hepatocellular Carcinoma); assay: as above
How it was run: as §1

[9] = test system: P31-FUJ (Acute Myeloid Leukemia); assay: as above
How it was run: as §1

[10] = test system: SK-LMS-1 (Other Solid Carcinomas); assay: as above
How it was run: as §1

SK-MEL-1 (Melanoma) = assay: as above
How it was run: as §1

[11] = test system: SLVL (B-Cell Non-Hodgkin's Lymphoma); assay: as above
How it was run: as §1

[12] = test system: BICR78 (Oral Cavity Carcinoma); assay: combination Emax (second highest fraction inhibited in the dose matrix, 72 h); higher = more inhibition; extreme values may be limits of the assay
How it was run: as §1

[13] = test system: CAL-39 (Other Solid Carcinomas); assay: as above
How it was run: as §1

CS1 (Chondrosarcoma) [14] = assay: as above
How it was run: as §1

EW-22 (Ewing's Sarcoma) [15] = assay: as above
How it was run: as §1

[16] = test system: HLE (Hepatocellular Carcinoma); assay: as above
How it was run: as §1

[17] = test system: SK-UT-1 (Other Solid Carcinomas); assay: as above
How it was run: as §1

[18] = test system: WSU-DLCL2 (B-Cell Non-Hodgkin's Lymphoma); assay: as above
How it was run: as §1
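Wherever Bliss excess, mean over the matrix is given: after 72 h of two-drug dosing.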

Row | Structure (SMILES) | Bliss excess [1] | Bliss excess [2] | Bliss excess (CS1 (Chondrosarcoma) [3]) | Bliss excess [4] | Bliss excess (EW-22 (Ewing's Sarcoma) [5]) | Bliss excess [6] | Bliss excess (H4 (Low Grade Glioma)) | Bliss excess [7] | Bliss excess [8] | Bliss excess [9] | Bliss excess [10] | Bliss excess (SK-MEL-1 (Melanoma)) | Bliss excess [11] | combination Emax [12] | combination Emax [13] | combination Emax (CS1 (Chondrosarcoma) [14]) | combination Emax (EW-22 (Ewing's Sarcoma) [15]) | combination Emax [16] | combination Emax [17] | combination Emax [18]
1 | C=CCn1c(=O)c2cnc(Nc3ccc(N4CCN(C)CC4)cc3)nc2n1-c1cccc(C(C)(C)O)n1 [AZD1775] + CCc1c2c(nc3ccc(O)cc13)-c1cc3c(c(=O)n1C2)COC(=O)[C@]3(O)CC [SN-38] (first compound max 1 µM, partner max 0.3 µM) | -0.0403 | -0.0225 | -0.0705 | -0.0096 | -0.0286 | -0.102 | 0.015 | -0.0302 | -0.0436 | 0.0049 | -0.0441 | 0.0154 | -0.0701 | 0.854 | 0.947 | 0.786 | 0.94 | 0.791 | 0.982 | 1
2 | C=CCn1c(=O)c2cnc(Nc3ccc(N4CCN(C)CC4)cc3)nc2n1-c1cccc(C(C)(C)O)n1 [AZD1775] + Nc1ccn([C@@H]2O[C@H](CO)[C@@H](O)C2(F)F)c(=O)n1 [Gemcitabine] (first compound max 1 µM, partner max 0.3 µM) | 0.0412 | 0.0328 | -0.0007 | -0.0216 | -0.0431 | -0.0741 | -0.0148 | -0.0342 | 0.0609 | 0.0797 | -0.027 | -0.0469 | -0.0357 | 0.718 | 0.914 | 0.661 | 0.921 | 0.709 | 0.916 | 1
3 | CN(CCO)CC[C@H](CSc1ccccc1)Nc1ccc(S(=O)(=O)NC(=O)c2ccc(N3CCC([C@@H](O)c4ccccc4-c4ccc(Cl)cc4)CC3)cc2)cc1S(=O)(=O)C(F)(F)F [AZD4320] + CC(=O)O[C@H]1C(=O)[C@@]2(C)[C@H]([C@H](OC(=O)c3ccccc3)[C@]3(O)C[C@H](OC(=O)[C@H](O)[C@@H](NC(=O)c4ccccc4)c4ccccc4)C(C)=C1C3(C)C)[C@]1(OC(C)=O)CO[C@@H]1C[C@@H]2O [Paclitaxel] (first compound max 1 µM, 7x7, partner max 3 µM) | 0.0354 | 0.0298 | 0.041 | 0.0565 | 0.0397 | 0.0924 | -0.0229 | 0.0182 | -0.0036 | -0.0004 | 0.0954 | 0.0354 | 0.032 | 0.941 | 1 | 0.961 | 0.999 | 0.93 | 0.977 | 1
4 | CN(CCO)CC[C@H](CSc1ccccc1)Nc1ccc(S(=O)(=O)NC(=O)c2ccc(N3CCC([C@@H](O)c4ccccc4-c4ccc(Cl)cc4)CC3)cc2)cc1S(=O)(=O)C(F)(F)F [AZD4320] + CS(=O)(=O)CCNCc1ccc(-c2ccc3ncnc(Nc4ccc(OCc5cccc(F)c5)c(Cl)c4)c3c2)o1 [Lapatinib] (first compound max 1 µM, 7x7, partner max 10 µM) | 0.0251 | 0.0372 | 0.0095 | 0.0402 | 0.0967 | -0.0203 | -0.0113 | 0.0085 | 0.0535 | 0.109 | 0.0357 | -0.0444 | 0.0675 | 0.456 | 0.97 | 0.937 | 0.971 | 0.945 | 0.906 | 0.967
5 | CN(CCO)CC[C@H](CSc1ccccc1)Nc1ccc(S(=O)(=O)NC(=O)c2ccc(N3CCC([C@@H](O)c4ccccc4-c4ccc(Cl)cc4)CC3)cc2)cc1S(=O)(=O)C(F)(F)F [AZD4320] + Nc1ccn([C@@H]2O[C@H](CO)[C@@H](O)C2(F)F)c(=O)n1 [Gemcitabine] (first compound max 1 µM, 7x7, partner max 0.3 µM) | -0.0581 | 0.0174 | 0.0187 | 0.0797 | 0.0287 | -0.0498 | 0.0194 | 0.0111 | 0.0579 | -0.0492 | 0.0273 | -0.0689 | -0.0135 | 0.63 | 0.97 | 0.789 | 0.999 | 0.887 | 0.978 | 1
6 | Cc1c2c(nn1C)CSCc1cc(n(C)n1)CSc1cc(c3ccccc3c1)OCCCc1c(C(=O)O)n(C)c3c-2c(Cl)ccc13 [AZD5991] + CC(=O)O[C@H]1C(=O)[C@@]2(C)[C@H]([C@H](OC(=O)c3ccccc3)[C@]3(O)C[C@H](OC(=O)[C@H](O)[C@@H](NC(=O)c4ccccc4)c4ccccc4)C(C)=C1C3(C)C)[C@]1(OC(C)=O)CO[C@@H]1C[C@@H]2O [Paclitaxel] (first compound max 1 µM, 7x7, partner max 3 µM) | -0.0412 | -0.0154 | -0.012 | -0.0004 | -0.0122 | 0.0262 | 0.0003 | -0.0211 | -0.0411 | -0.0253 | -0.0569 | -0.0045 | -0.0181 | 0.701 | 0.994 | 0.652 | 0.871 | 0.825 | 0.884 | 1
7 | Cc1c2c(nn1C)CSCc1cc(n(C)n1)CSc1cc(c3ccccc3c1)OCCCc1c(C(=O)O)n(C)c3c-2c(Cl)ccc13 [AZD5991] + CS(=O)(=O)CCNCc1ccc(-c2ccc3ncnc(Nc4ccc(OCc5cccc(F)c5)c(Cl)c4)c3c2)o1 [Lapatinib] (first compound max 1 µM, 7x7, partner max 10 µM) | -0.0065 | 0.0372 | -0.0458 | 0.111 | -0.0028 | -0.0179 | 0.0407 | -0.0365 | 0.0311 | -0.0445 | -0.0101 | 0.026 | 0.0502 | 0.445 | 0.998 | 0.506 | 0.41 | 0.23 | 0.485 | 1
8 | Cc1c2c(nn1C)CSCc1cc(n(C)n1)CSc1cc(c3ccccc3c1)OCCCc1c(C(=O)O)n(C)c3c-2c(Cl)ccc13 [AZD5991] + Nc1ccn([C@@H]2O[C@H](CO)[C@@H](O)C2(F)F)c(=O)n1 [Gemcitabine] (first compound max 1 µM, 7x7, partner max 0.3 µM) | -0.0851 | 0.0269 | -0.0411 | -0.0008 | -0.0071 | -0.0321 | -0.0393 | -0.0854 | 0.0249 | 0.0115 | -0.009 | -0.0226 | -0.014 | 0.642 | 0.899 | 0.445 | 0.933 | 0.713 | 0.904 | 1
9 | C[C@@H]1COCCN1c1cc(C2([S@](C)(=N)=O)CC2)nc(-c2ccnc3[nH]ccc23)n1 [AZD6738] + C1CC(C1)(C(=O)[O-])C(=O)[O-].N.N.[Pt+2] [Carboplatin] (first compound max 10 µM, 7x7, partner max 10 µM) | -0.0459 | -0.0128 | -0.0674 | 0.0086 | -0.0301 | -0.0576 | 0.0025 | 0.0014 | 0.0173 | -0.0078 | -0.032 | -0.048 | -0.0419 | 0.58 | 0.609 | 0.548 | 0.851 | 0.458 | 0.779 | 0.767
10 | C[C@@H]1COCCN1c1cc(C2([S@](C)(=N)=O)CC2)nc(-c2ccnc3[nH]ccc23)n1 [AZD6738] + Nc1ccn([C@@H]2O[C@H](CO)[C@@H](O)C2(F)F)c(=O)n1 [Gemcitabine] (first compound max 10 µM, 7x7, partner max 0.3 µM) | 0.0298 | 0.0523 | 0.075 | 0.0785 | 0.0068 | -0.0143 | 0.0184 | 0.0252 | 0.105 | 0.0545 | 0.0139 | 0.0174 | -0.0284 | 0.79 | 0.961 | 0.734 | 0.949 | 0.834 | 0.979 | 1
11 | Cc1cc2ncnn2cc1Nc1ncc2c(n1)n(C1CCOCC1)c(=O)n2C [AZD7648] + COc1cc([C@@H]2c3cc4c(cc3[C@@H](O[C@@H]3O[C@@H]5CO[C@@H](C)O[C@H]5[C@H](O)[C@H]3O)[C@H]3COC(=O)[C@H]23)OCO4)cc(OC)c1O [Etoposide] (first compound max 10 µM, 7x7, partner max 10 µM) | 0.0789 | 0.0364 | 0.017 | 0.109 | 0.112 | -0.0047 | 0.0976 | 0.13 | 0.116 | 0.101 | 0.172 | 0.0651 | 0.0824 | 0.666 | 0.701 | 0.649 | 0.938 | 0.729 | 0.926 | 1
12 | N#Cc1cnc(Nc2cc(NC[C@H]3CNCCO3)c(C(F)(F)F)cn2)cn1 [SRA737] + CCc1c2c(nc3ccc(O)cc13)-c1cc3c(c(=O)n1C2)COC(=O)[C@]3(O)CC [SN-38] (first compound max 10 µM, 7x7, partner max 0.3 µM) | -0.0015 | -0.0157 | -0.0579 | -0.0531 | -0.0592 | -0.0076 | -0.0029 | -0.0306 | -0.0755 | -0.0541 | -0.0248 | – | -0.0909 | 0.854 | 0.93 | 0.786 | 0.932 | 0.798 | 0.943 | 1
13 | N#Cc1cnc(Nc2cc(NC[C@H]3CNCCO3)c(C(F)(F)F)cn2)cn1 [SRA737] + O=c1[nH]cc(F)c(=O)[nH]1 [5-Fluorouracil] (first compound max 10 µM, 7x7, partner max 20 µM) | 0.0904 | 0.0175 | -0.0251 | 0.0382 | 0.0416 | -0.0284 | -0.0189 | 0.0445 | -0.0146 | -0.0034 | -0.0143 | -0.0178 | -0.0551 | 0.55 | 0.345 | 0.405 | 0.736 | 0.129 | 0.799 | –
